This is an account of results in publication PMC6072853 (Frontiers in Pharmacology, 2018).

What all share (type): cell-based, human
One test has as its system HeLa. In words: MTT antiproliferative assay, HeLa. The note with it: Homo sapiens, 72 h; for inhibition at 10 µM / inhibition at 30 µM: read-out: Growth inhibition (%) ± SEM. The source says:
(§1) Gynecological cancer cell lines, including ovarian (A2780), cervical (HeLa), and breast cancer cell lines (MCF7, T47D, MDA-MB-231, and MDA-MB-361) were purchased from the European Collection of Authenticated Cell Cultures (ECACC, Salisbury, United Kingdom). Additional cervical cell lines (SiHa and C33A) and a non-cancerous immortalized, mammary gland epithelial cell line (hTERT-HME1) were purchased from LGC Standards GmbH (Wesel, Germany). Non-cancerous fibroblast cells (MRC-5) were also obtained from the ECACC. All cells were cultured in minimal essential medium supplemented with 10% fetal bovine serum, 1% non-essential amino acids, and 1% antibiotic-antimycotic mixture, in humidified air containing 5% CO2 at 37°C. Immortalized hTERT-HME1 cells were maintained in serum-free mammary epithelial cell growth medium (MEGM) supplemented with insulin, human epidermal growth factor (hEGF), hydrocortisone, bovine pituitary extract, and an antibiotic-antimycotic mixture. All the medium and supplements were purchased from Lonza Group Ltd. (Basel, Switzerland).
(§2) The antiproliferative properties of the compounds were assessed by an MTT assay ([Mosmann, 1983]). Cells were seeded onto 96-well microplates at a density of 10,000 cells/well (MDA-MB-361 and C33A) or 5,000 cells/well (all other cell lines). After an overnight incubation, fresh medium containing the test compounds (at a concentration of 10 or 30 μM) was added. After incubation for 72 h at 37°C in humidified air, [3-(4,5-dimethylthiazol-2-yl)-2,5-diphenyltetrazolium bromide] (MTT) solution (5 mg/mL) was added. Purple formazan crystals were formed by the living cells during a 4 h contact period, which were assayed by spectrophotometry after having been dissolved in 100 μL DMSO. Untreated cells served as control, and cisplatin (CIS) (Ebewe Pharma GmbH, Unterach, Austria) was used as a reference compound. […] Two independent measurements were performed with five parallel wells. To present preliminary data concerning tumor selectivity of the potent compounds, the procedure was repeated on MRC-5 fibroblast and hTERT-HME1 immortalized mammary gland epithelial cells under the same experimental conditions.

The next test has as its system SiHa. Description: MTT antiproliferative assay, SiHa. To be noted: Homo sapiens, 72 h, read-out: Growth inhibition (%) ± SEM.
Source text: as §1, §2

The next test concerns C33A. In words: MTT antiproliferative assay, C33A. The note with it: Homo sapiens, C-33-A, 72 h, read-out: Growth inhibition (%) ± SEM.
Source text: as §1, §2

The test system of a further test is A2780. Description: MTT antiproliferative assay, A2780. To be noted: Homo sapiens, 72 h, read-out: Growth inhibition (%) ± SEM; for inhibition at 10 µM: A2780, 10 μM; for inhibition at 30 µM: A2780, 30 μM.
Source text: as §1, §2

The next test relates to MCF-7. In words: MTT antiproliferative assay, MCF-7. To be noted: Homo sapiens, MCF7, 72 h, read-out: Growth inhibition (%) ± SEM; for inhibition at 10 µM: MCF-7, 10 μM; for inhibition at 30 µM: MCF-7, 30 μM.
Source text: as §1, §2

For the next test, the system named is MDA-MB-231. In words: MTT antiproliferative assay, MDA-MB-231. The note with it: Homo sapiens, 72 h, read-out: Growth inhibition (%) ± SEM; for inhibition at 10 µM: MDA-MB-231, 10 μM; for inhibition at 30 µM: MDA-MB-231, 30 μM.
Source text: as §1, §2

The subject of another test is MDA-MB-361. In words: MTT antiproliferative assay, MDA-MB-361. The note with it: Homo sapiens, 72 h, read-out: Growth inhibition (%) ± SEM; for inhibition at 10 µM: MDA-MB-361, 10 μM; for inhibition at 30 µM: MDA-MB-361, 30 μM.
Source text: as §1, §2

In another test the test system is T47D. Description: MTT antiproliferative assay, T47D. To be noted: Homo sapiens, 72 h, read-out: Growth inhibition (%) ± SEM.
Source text: as §1, §2

For the next test, the system named is MRC-5. Description: MTT assay, non-cancerous fibroblasts MRC-5. To be noted: Homo sapiens, MRC5, 72 h, read-out: Growth inhibition (%) ± SEM.
Source text: as §1, §2

On to `C[C@]12CC[C@H]3[C@@H](CCC4=CC(=O)CC[C@@H]43)[C@@H]1CC[C@H]2I` [Compound 5], for which the inhibition at 10 µM with HeLa was 95.2 ± 0.4%; with SiHa, less than 20%; in the test on C33A, less than 20%; in the test on A2780, 27.7 ± 1.3%; in the test on MCF-7, less than 20%; with MDA-MB-231, less than 20%. Moreover, the inhibition at 10 µM was less than 20% in the test with MDA-MB-361; less than 20% with T47D; 13.1 ± 1.9% in the test on MRC-5 (MRC-5, 10 μM). In addition, the inhibition at 30 µM in the test with HeLa is 95.8 ± 0.2%; with SiHa, less than 20%; with C33A, less than 20%; with A2780, 61.6 ± 1.8%; with MCF-7 it was less than 20%; with MDA-MB-231 it was less than 20%. Further, the inhibition at 30 µM is less than 20% in the test with MDA-MB-361; less than 20% in the test on T47D; 13.8 ± 2% with MRC-5 (MRC-5, 30 μM). Also, in the test with HeLa (read-out: calculated IC50 value), the IC50 was 1490 nM.

On to `C[C@]12CC[C@H]3[C@@H](CCC4=CC(=O)CC[C@@H]43)[C@@H]1CC[C@H]2OC(=O)c1ccc([N+](=O)[O-])cc1[N+](=O)[O-]` [Compound 6, 17α-19-nortestosterone-17-yl 2′,4′-dinitrobenzoate], for which the inhibition at 10 µM is 32 ± 2.9% in the test on HeLa; less than 20% in the test with SiHa; less than 20% with C33A; less than 20% in the test with A2780; less than 20% in the test with MCF-7; less than 20% in the test on MDA-MB-231. The inhibition at 10 µM in the test with MDA-MB-361 and with T47D was less than 20% each time. For the same molecule, the inhibition at 30 µM in the test with HeLa was 26.5 ± 2.3%; in the test on SiHa it was less than 20%; in the test on C33A, less than 20%; in the test with A2780, 31.9 ± 2.6%; in the test on MCF-7, 35.9 ± 1.4%; in the test with MDA-MB-231, less than 20%. Also, the inhibition at 30 µM in the test with MDA-MB-361 was less than 20%; in the test on T47D it was 47.2 ± 2.6%.

As to `C[C@]12CC[C@H]3[C@@H](CCC4=CC(=O)CC[C@@H]43)[C@@H]1CC[C@H]2OC(=O)c1cc([N+](=O)[O-])cc([N+](=O)[O-])c1` [Compound 7, 17α-19-nortestosterone-17-yl 3′,5′-dinitrobenzoate], the inhibition at 10 µM was 26.6 ± 1.8% in the test with HeLa; less than 20% with SiHa; less than 20% in the test with C33A; 49.2 ± 0.9% in the test with A2780; 25.9 ± 3.1% in the test with MCF-7; less than 20% in the test with MDA-MB-231. In addition, the inhibition at 10 µM with MDA-MB-361 and with T47D was less than 20% in each case. Besides, the inhibition at 30 µM with HeLa was 21.5 ± 1.9%; in the test on SiHa, less than 20%; in the test on C33A it was less than 20%; with A2780, 58.1 ± 2%; with MCF-7 it was 37.7 ± 3.4%; in the test with MDA-MB-231, less than 20%. The inhibition at 30 µM in the test on MDA-MB-361 is 22 ± 1.6%; with T47D, less than 20%.
